Test results from patent publication US12459921B2, “Isoindoline compound, preparation method, pharmaceutical composition and use thereof” (SHANGHAI INSTITUTE OF MATERIA MEDICA, CHINESE ACADEMY OF …, priority 2018, dated 2025).
Where two headings read alike, the source gives them in different places.

Tested on: MM.1S cells
Experiment: Inhibitory effect on the proliferation of MM.1S, MTS cell viability test
Type: cell-based
Conditions: multiple myeloma MM.1S cells, 7 days incubation, read-out: Tumor cell inhibitory activity
Procedure, shortened: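 Viability measured by MTS (OD490 minus OD690 background, 3-4 h) after a 7-day exposure of 20,000 MM.1S cells/well to 5-fold serially diluted compound, 0.2% DMSO final. Inhibition calculated relative to DMSO wells; IC50 curve-fitted, averaged over three repeats.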

Compound | IC50 (Homo sapiens, MM1.S, 168 h) | IC50
Cc1cc(C)c(C2(C#N)CCN(CCCCc3cccc4c3CN(C3CCC(=O)NC3=O)C4=O)CC2)c(C)c1 (centres unmarked) [Example 261, 1-(4-(2-(2,6-dioxopiperidin-3-yl)-1-oxoisoindolin-4-yl)butyl)-4-sym-trimethylphenylpiperidine-4-carbonitrile] | 1000 to 20000 nM | –
O=C1CCC(N2Cc3c(OCCCCN4CCC(c5noc6cc(F)ccc56)CC4)cccc3C2=O)C(=O)N1 (centres unmarked) [Example 241, 3-(4-(4-(4-(6-fluorobenzisoxazole-3-yl)piperidin-1-yl)butoxy)-1-oxoisoindoline-2-yl) piperidine-2,6-dione] | 1000 to 20000 nM | –
[2H]c1c([2H])c([2H])c(N2CCN(CCCCCc3cccc4c3CN(C3CCC(=O)NC3=O)C4=O)CC2)c([2H])c1[2H] (centres unmarked) [Example 210] | 100 to 1000 nM | –
O=C1CCC(N2Cc3c(CCCCCN4CCC5(CC4)C(=O)Nc4ccc(F)cc45)cccc3C2=O)C(=O)N1 (centres unmarked) [Example 278] | 100 to 1000 nM | –
O=C1CCC(N2Cc3c(CCCCN4CCN(c5c(Cl)cccc5Cl)CC4)cccc3C2=O)C(=O)N1 (centres unmarked) [Example 48, 3-(4-(4-(4-(2,6-dichlorophenyl)piperazine-1-)butyl)-1-oxoisoindoline-2-)piperidine-2,6-dione] | < 100 nM | –
O=C1CCC(N2Cc3c(CCCCCN4CCN(c5nsc6ccccc56)CC4)cccc3C2=O)C(=O)N1 (centres unmarked) [Example 232, 3-(4-(5-(4-(benzisothiazol-3-yl)piperazin-1-yl)pentyl)-1-oxoisoindoline-2-yl) piperidine-2,6-dione] | 1000 to 20000 nM | –
O=C1CCC(N2Cc3c(OCCCCCCN4CCC5(CC4)OCc4ccc(Cl)cc45)cccc3C2=O)C(=O)N1 (centres unmarked) [Example 150, 3-(4-((6-(6-chloro-3H-spiro[isobenzofuran-1,4′-piperidine]-1′-)hexyl)oxy)-1-oxoisoindoline-2-)piperidine-2,6-dione] | < 100 nM | –
O=C1CCC(N2Cc3c(OCCCCCCOc4ccnc5ccccc45)cccc3C2=O)C(=O)N1 (centres unmarked) [Example 14, 3-(1-oxo-4-((6-(quinoline-4-oxy)hexyl)oxy)isoindoline-2-)piperidine-2,6-dione] | < 100 nM | –
N[C@@H](CCCc1cccc2c1CN(C1CCC(=O)NC1=O)C2=O)C(=O)Nc1ccccc1-c1cccnc1 (stereo partly drawn) [Example 172, (2S)-2-amino-5-(2-(2,6-dioxopiperidine-3-)-1-oxoisoindoline-4-)-N-(2-(pyridine-3-)phenyl)pentaneamide] | > 20000 nM | –
N#CC1(c2ccc(O[C@H]3CCOC3)cc2)CCN(CCCCCc2cccc3c2CN(C2CCC(=O)NC2=O)C3=O)CC1 (stereo partly drawn) [Example 263, 1-(5-(2-(2,6-dioxopiperidin-3-yl)-1-oxoisoindolin-4-yl)pentyl)-4-(4-(((S)-tetrahydrofuran-3-yl)oxy)phenyl)piperidine-4-carbonitrile] | – | 100 to 1000 nM
N#CC1(c2c(Cl)cccc2Cl)CCN(CCCCc2cccc3c2CN(C2CCC(=O)NC2=O)C3=O)CC1 (centres unmarked) [Example 266, 4-(2,6-dichlorophenyl)-1-(4-(2-(2,6-dioxopiperidin-3-yl)-1-oxoisoindoline-4-yl)butyl)piperidine-4-carbonitrile] | 100 to 1000 nM | –
[2H]c1c([2H])c([2H])c(N2CCN(CCCCc3cccc4c3CN(C3CCC(=O)NC3=O)C4=O)CC2)c([2H])c1[2H] (centres unmarked) [Example 208, 3-(1-oxo-4-(4-(4-(phenyl-d5)piperazine-1-)butyl)isoindoline-2-)piperidine-2,6-dione] | 100 to 1000 nM | –
O=C1CCC(N2Cc3c(CCCCCN4CCC5(CC4)OCc4c(Cl)cccc45)cccc3C2=O)C(=O)N1 (centres unmarked) [Example 280, 3-(4-(5-(4-chloro-3H-spiro[isobenzofuran-1,4′-piperidin]-1-yl)pentyl)-1-oxoisoindoline-2-yl)piperidine-2,6-dione] | 100 to 1000 nM | –
O=C1CCC(N2Cc3c(CCCCCOc4cnc5ccccc5c4)cccc3C2=O)C(=O)N1 (centres unmarked) [Example 11, 3-(1-oxo-4-(5-(quinoline-3-oxy)pentyl)isoindoline-2-)piperidine-2,6-dione] | < 100 nM | –
C[C@]1(N2C(=O)c3cccc(OCCCN4CCC(C#N)(c5cccc(Cl)c5)CC4)c3C2=O)CCC(=O)NC1=O [Example 54, (S)-4-(3-chlorophenyl)-1-(3-((2-(3-methyl-2,6-dioxopiperidine-3-)-1,3-dioxoisoindoline-4-)oxy)propyl)piperidine-4-carbonitrile] | 1000 to 20000 nM | –
N#CC1(c2ccccc2)CCN(CCCOc2cccc3c2CN(C2CCC(=O)NC2=O)C3=O)CC1 (centres unmarked) [Example 53, 1-(3-((2-(2,6-dioxopiperidine-3-)-1-oxoisoindoline-4-)oxy)propyl)-4-phenylpiperidine-4-carboxonitrile] | < 100 nM | –
O=C1CCC(N2Cc3c(CCCCCN4CCN(c5cccc(Cl)c5Cl)CC4)cccc3C2=O)C(=O)N1 (centres unmarked) [Example 26, 3-(4-(5-(4-(2,3-dichlorophenyl)piperazine-1-)pentyl)-1-oxoisoindoline-2-)piperidine-2,6-dione] | < 100 nM | –
N#CC1(c2cccc(OC(F)(F)F)c2)CCN(CCCCc2cccc3c2CN(C2CCC(=O)NC2=O)C3=O)CC1 (centres unmarked) [Example 97, 1-(4-(2-(2,6-dioxopiperidine-3-)-1-oxoisoindoline-4-)butyl)-4-(3-trifluoromethoxyphenyl) piperidine-4-carbonitrile] | < 100 nM | –

Compound | IC50 (Homo sapiens, MM1.S, 168 h) | IC50
O=C1CCC(N2Cc3c(OCCCCC(=O)N4CCN(c5ccccc5)CC4)cccc3C2=O)C(=O)N1 (centres unmarked) [Example 30] | < 100 nM | –
O=C1CCC(N2Cc3c(CCCCCN4CCc5ccccc5C4)cccc3C2=O)C(=O)N1 (centres unmarked) [Example 113, 3-(4-(5-(3,4-dihydroisoquinoline-2(1H)-)pentyl)-1-oxoisoindoline-2-)piperidine-2,6-dione] | 100 to 1000 nM | –
O=C1CCC(N2Cc3c(CCCCN4CCN(c5ccccc5F)CC4)cccc3C2=O)C(=O)N1 (centres unmarked) [Example 218, 3-(4-(4-(4-(2-fluorophenyl)piperazine-1-yl)butyl)-1-oxoisoindoline-2-yl)piperidine-2,6-dione] | < 100 nM | –
O=C1CCC(N2Cc3c(OCCCCOc4ccnc5ccccc45)cc(F)cc3C2=O)C(=O)N1 (centres unmarked) [Example 211, 3-(6-fluoro-1-oxy-4-(4-(quinoline-4-oxy)butoxy)-1-oxoisoindoline-2-)piperidine-2,6-dione] | < 100 nM | –
CCC(=O)N[C@@H](CCCc1cccc2c1CN(C1CCC(=O)NC1=O)C2=O)C(=O)NCc1ccccc1 (stereo partly drawn) [Example 206, (2S)—N-benzyl-5-(2-(2,6-dioxopiperidine-3-)-1-oxoisoindoline-4-)-2-propionamidopentaneamide] | < 100 nM | –
N[C@@H](CCCc1cccc2c1CN(C1CCC(=O)NC1=O)C2=O)C(=O)Nc1ccccc1-c1ccccn1 (stereo partly drawn) [Example 170, (2S)-2-amino-5-(2-(2,6-dioxopiperidine-3-)-1-oxoisoindoline-4-)-N-(2-(pyridine-2-)phenyl)pentanamide] | > 20000 nM | –
N#CC1(c2cccc(Cl)c2)CCN(CCCCCCc2cccc3c2CN(C2CCC(=O)NC2=O)C3=O)CC1 (centres unmarked) [Example 100, 4-(3-chlorophenyl)-1-(6-(2-(2,6-dioxopiperidine-3-)-1-oxoisoindoline-4-)hexyl)piperidine-4-carbonitrile] | < 100 nM | –
Cc1ccc(NC(=O)[C@H](CCCc2cccc3c2CN(C2CCC(=O)NC2=O)C3=O)NC(=O)C2CC2)cc1Cl (stereo partly drawn) [Example 185, N-((2S)-1-((3-chloro-4-methylphenyl)amino)-5-(2-(2,6-dioxopiperidine-3-)-1-oxoisoindoline-4-)-1-oxopentyl-2-)cyclopropylformamide] | < 100 nM | –
O=C1CCC(N2Cc3c(CCCCCN4CCN(c5ccccc5)CC4)cccc3C2=O)C(=O)N1 (centres unmarked) [Example 18, 3-(1-oxo-4-(5-(4-phenylpiperazine-1-)pentyl)indoline-2-)piperidine-2,6-dione] | < 100 nM | –
O=C1CCC(N2Cc3c(OCCCCN4CCN(c5ccc(Cl)c(Cl)c5)CC4)cccc3C2=O)C(=O)N1 (centres unmarked) [Example 243, 3-(4-(4-(4-(3,4-dichlorophenyl)piperazine-1-yl)butoxy)-1-oxoisoindoline-2-yl)piperidine-2,6-dione] | 100 to 1000 nM | –
Cc1ccc(NC(=O)[C@H](CCCc2cccc3c2CN(C2CCC(=O)NC2=O)C3=O)NC(=O)C(C)C)cc1Cl (stereo partly drawn) [Example 183, (2S)—N-(3-chloro-4-methylphenyl)-5-(2-(2,6-dioxopiperidine-3-)-1-oxoisoindoline-4-)-2-isobutyrylaminopentanamide] | < 100 nM | –
COc1ccc(C2(C#N)CCN(CCCCCc3cccc4c3CN(C3CCC(=O)NC3=O)C4=O)CC2)c(Cl)c1 (centres unmarked) [Example 267, 4-(2-chloro-4-methoxyphenyl)-1-(5-(2-(2,6-dioxopiperidin-3-yl)-1-oxoisoindoline-4-yl)pentyl)piperidine-4-carbonitrile] | 100 to 1000 nM | –
N#CC1(c2cccc(OC(F)(F)F)c2)CCN(CCOc2cccc3c2CN(C2CCC(=O)NC2=O)C3=O)CC1 (centres unmarked) [Example 66, 1-(2-((2-(2,6-dioxopiperidine-3-)-1-oxoisoindoline-4-)oxy)ethyl)-4-(3-(trifluoromethoxy)phenyl)piperidine-4-carbonitrile] | 100 to 1000 nM | –
O=C1CCC(N2Cc3c(CCCCCCN4CCC5(CC4)OCc4ccc(Cl)cc45)cccc3C2=O)C(=O)N1 (centres unmarked) [Example 120, 3-(4-(6-(6-chloro-3H-spiro[isobenzofuran-1,4′-piperidine]-1′-)hexyl)-1-oxoisoindoline-2-)piperidine-2,6-dione] | < 100 nM | –
Cc1cc(COCCCCOc2cccc3c2CN(C2CCC(=O)NC2=O)C3=O)c2ccccc2n1 (centres unmarked) [Example 213, 3-(4-(4-((2-methylquinoline-4-)methoxy)butoxy)-1-oxoisoindoline-2-)piperidine-2,6-dione] | 100 to 1000 nM | –
O=C1CCC(N2Cc3c(CCCCN4CCN(c5ccc(F)cc5)CC4)cccc3C2=O)C(=O)N1 (centres unmarked) [Example 39, 3-(4-(4-(4-(4-fluorophenyl)piperazine-1-)butyl)-1-oxoisoindoline-2-)piperidine-2,6-dione] | < 100 nM | –
C[C@]1(N2Cc3c(OCCCN4CCC(C#N)(c5ccccc5OC(F)(F)F)CC4)cccc3C2=O)CCC(=O)NC1=O [Example 56, (S)-1-(3-((2-(3-methyl-2,6-dioxopiperidine-3-)-1-oxoisoindoline-4-)oxy)propyl)-4-(2-(trifluoromethoxy)phenyl)piperidine-4-carbonitrile] | 1000 to 20000 nM | –
